Source: article PMC8777785, “Antimicrobial Activity of Snake β-Defensins and Derived Peptides” (Toxins, 2021)
Converted amounts (≈) assume the structure as drawn. Residues, ends and D or L forms follow the SMILES beside them.

How the values were obtained:
Staphylococcus aureus = experiment: Microbroth dilution assay, MIC; type: cell-based; settings: overnight 37 °C, read at 600 nm, three independent experiments
Method: (§1) The β-defensins were tested using a microbroth dilution assay. It consists of incubating the bacteria (4.105 colony-forming unit—CFU/mL) and the peptide (from 1 to 512 µg/mL) in liquid broth. After the incubation at 37 °C during the night, the bacterial growth was detected by spectrophotometry at 600 nm. If the measure is similar to the broth, it […]. […] The β-defensins were tested against B. jararaca oral flora because it would be of biological and medical interest. In addition, we tested on E. coli ATCC 25922 and M. luteus that are common Gram-negative and Gram-positive bacteria used in antibacterial tests.
(§2) The antibacterial activity of the alkylated peptides was tested against Gram-negative (G−) bacteria (Klebsiella pneumonia, Serratia marcescens, Morganella morganii, Providencia rettgeri, Citrobacter freundii, Escherichia coli ATCC 25922 and Gram-positive (G+) bacteria (Micrococcus luteus A270 and Staphylococcus aureus) using microbroth assay. In a 96-well plate, 90 µL of 10% tryptone soy broth (TSB) with 4 × 10^5 colony-forming unit (CFU/mL) were mixed with serial twofold dilutions of β-defensins duplicate in concentrations from 512 to 1 µg/mL. The derived peptides coded as PS1, PS2, PS3, PS5, and PS6 (Table 1) were tested against these bacteria in serial twofold dilutions with concentrations bellow 700 µg/mL. After overnight incubation at 37 °C, the turbidity of the bacterial culture was read at 600 nm (Epoch microplate reader, Biotek). The minimal inhibitory concentration (MIC) of each peptide was determined as the lowest concentration that results in no visible bacterial growth. The MIC resulted from three independent experiments. The bacteria K. pneumonia, S. marcescens, M. morganii, P. rettgeri, C. freundii, M. luteus A270 and S. aureus were isolated from Bothrops jararaca buccal flora and kindly provided by Dr. Márcia R. Franzolin (Laboratory of Bacteriology—Instituto Butantan). M. luteus was kindly provided by Dr. Pedro I. da Silva Jr. (Laboratory of Applied Toxinology—Instituto Butantan).

[1] = tested on: Escherichia coli ATCC 25922; experiment: Microbroth dilution assay, MIC; type: cell-based; settings: overnight 37 °C, read at 600 nm, three independent experiments
Method: as §1, §2

Citrobacter freundii = experiment: Microbroth dilution assay, MIC; type: cell-based; settings: overnight 37 °C, read at 600 nm, three independent experiments
Method: as §1, §2

Micrococcus luteus A270 = experiment: Microbroth dilution assay, MIC; type: cell-based; settings: overnight 37 °C, read at 600 nm, three independent experiments
Method: as §1, §2

Klebsiella pneumonia = experiment: Microbroth dilution assay, MIC; type: cell-based, Klebsiella pneumoniae; settings: short derived peptides, 2.75 to 700 µg/mL, overnight 37 °C, read at 600 nm, three independent experiments
Method: as §1, §2

[2] = tested on: Cryptococcus neoformans (IOC 4528); experiment: Resazurin microtiter assay plate, antifungal MIC90; type: cell-based; settings: resazurin colour change, RPMI 1640, 1 to 250 μM, 28 °C, 24–72 h; three independent experiments
Method: (§3) The derived peptides were also tested against fungi species using the classical resazurin microtiter assay plate method. It is based on the color change of the rezazurin dye that in blue indicates the absence of growth in at least 90%, and pink refers to microorganism growth. MIC is determined as the minimal concentration of the sample that can prevent the color change from blue to pink and refers to the inhibition of 90% of microorganisms.
(§4) The antifungal activity was evaluated by the microdilution assay as previously described on clinical strains of Candida albicans (IOC 4525), Cryptococcus neoformans (IOC 4528), Trichophyton rubrum (IOC 4527) and Aspergillus fumigatus (IOC 4526). The fungi were cultivated in potato dextrose agar at 28 °C according to the Clinical and Laboratory Standards Institute recommendations. Fungal suspensions were prepared in RPMI 1640 culture media; the CFU/mL was adjusted to 0.5–2.5 × 10^3 for yeasts (C. albicans and C. neoformans) and 0.4–5 × 10^4 CFU/mL for filamentous fungi (T. rubrum e A. fumigatus), by comparison with a standard curve previously stablished in our laboratory.
(§5) The peptides PS1, PS2, PS, PS3, PS4, PS5 and PS6 at 1 mM in acetic acid at 0.01% were diluted in RPMI 1640 culture media at concentrations ranging from 1 to 250 μM. Amphotericin B (AMB) at concentrations below 15 μg/mL (16 μM) and acetic acid from 0.0002 to 0.0025% was used as control.
(§6) The fungi suspensions were added to a 96 well plate (100 µL/well) and the samples (100 µL) in different concentrations were added to each well. The plate was incubated at 28 °C for 24–72 h, and 24 h before the end of the assay 25 µL of the rezazurin dye at 0.02% were added to each well. The minimal inhibitory concentration (MIC90) was defined as the lowest concentration that prevents the rezazurin’s change in color from blue to pink due to the inhibition of at least 90% of the microorganism’s growth. The assays were performed in three independent experiments.

[3] = tested on: Trichophyton rubrum (IOC 4527); experiment: Resazurin microtiter assay plate, antifungal MIC90; type: cell-based; settings: resazurin colour change, RPMI 1640, 1 to 250 μM, 28 °C, 24–72 h; three independent experiments
Method: as §3, §4, §5, §6

[4] = tested on: Candida albicans (IOC 4525); experiment: Resazurin microtiter assay plate, antifungal MIC90; type: cell-based; settings: resazurin colour change, RPMI 1640, 1 to 250 μM, 28 °C, 24–72 h; three independent experiments
Method: as §3, §4, §5, §6

[5] = tested on: Aspergillus fumigatus (IOC 4526); experiment: Resazurin microtiter assay plate, antifungal MIC90; type: cell-based; settings: resazurin colour change, RPMI 1640, 1 to 250 μM, 28 °C, 24–72 h; three independent experiments
Method: as §3, §4, §5, §6

[6] = short derived peptides, 2.75 to 700 µg/mL
[7] = snake β-defensins, linear (alkylated) except native crotamine, 10% TSB, 4 × 10^5 CFU/mL, 512 to 1 µg/mL

Molecule | MIC, S. aureus (Staphylococcus aureus; [6]) [µM] | MIC, E. coli [1, 6] [µM] | MIC, C. freundii (Citrobacter freundii; [6]) [µM] | MIC, M. luteus (Micrococcus luteus A270; [6]) [µM] | MIC, K. pneumoniae (Klebsiella pneumonia) [µM] | MIC90, Cryptococcus neoformans [2] [µM] | MIC90, Trichophyton rubrum [3] [µM] | MIC90, Candida albicans [4] [µM] | MIC90, Aspergillus fumigatus [5] [µM] | MIC, S. aureus (Staphylococcus aureus; [7]) [µM] | MIC, E. coli [1, 7] [µM] | MIC, C. freundii (Citrobacter freundii; [7]) [µM] | MIC, M. luteus (Micrococcus luteus A270; [7]) [µM]
N=C(N)NCCC[C@H](NC(=O)[C@H](Cc1c[nH]c2ccccc12)NC(=O)[C@H](CCCNC(=N)N)NC(=O)[C@@H](N)CO)C(=O)N[C@@H](Cc1c[nH]c2ccccc12)C(=O)N[C@@H](CCCCN)C(=O)N[C@@H](CO)C(=O)N[C@@H](CO)C(=O)N[C@@H](CCCCN)C(=O)N[C@@H](CCCCN)C(=O)NCC(=O)N[C@@H](CO)C(=O)NCC(=O)O [PS1] (H-SRWRWKSSKKGSG-OH) | 56.5 (≈ 87.6 µg/mL) | 56.5 (≈ 87.6 µg/mL) | 113 (≈ 175 µg/mL) | 28.4 (≈ 44 µg/mL) | >452 | >250 | >250 | >250 | >250 | – | – | – | –
CSCC[C@H](NC(=O)[C@H](CCC(N)=O)NC(=O)[C@@H](N)CO)C(=O)NCC(=O)N[C@@H](CCCNC(=N)N)C(=O)N[C@@H](CCSC)C(=O)N[C@@H](CO)C(=O)N[C@@H](CO)C(=O)N[C@@H](CCCNC(=N)N)C(=O)N[C@@H](CCCNC(=N)N)C(=O)N[C@@H](CCCNC(=N)N)C(=O)N[C@@H](Cc1ccccc1)C(=O)NCC(=O)N[C@@H](CCCCN)C(=O)O [PS2] (H-SQMGRMSSRRRFGK-OH) | 415 (≈ 699 µg/mL) | 415 (≈ 699 µg/mL) | >415 | 26.1 (≈ 44 µg/mL) | >415 | >250 | >250 | >250 | >250 | – | – | – | –
N=C(N)NCCC[C@H](NC(=O)CNC(=O)[C@@H]1CCCN1C(=O)CNC(=O)[C@@H](N)CO)C(=O)N[C@@H](CCCNC(=N)N)C(=O)N[C@@H](CO)C(=O)N[C@@H](CO)C(=O)N[C@@H](CCCNC(=N)N)C(=O)N[C@@H](CCCNC(=N)N)C(=O)N[C@@H](CCCNC(=N)N)C(=O)N[C@@H](CCCCN)C(=O)O [PS3] (H-SGPGRRSSRRRK-OH) | 125 (≈ 175 µg/mL) | >500 | >500 | 31.5 (≈ 44.1 µg/mL) | >500 | >250 | >250 | >250 | >250 | – | – | – | –
N=C(N)NCCC[C@H](NC(=O)[C@H](Cc1c[nH]c2ccccc12)NC(=O)[C@H](CCCNC(=N)N)NC(=O)[C@@H](N)CO)C(=O)N[C@@H](Cc1c[nH]c2ccccc12)C(=O)N[C@@H](CCCCN)C(=O)N[C@@H](CO)C(=O)O [PS6] (H-SRWRWKS-OH) | 349 (≈ 351 µg/mL) | 697 (≈ 701 µg/mL) | – | 43.8 (≈ 44 µg/mL) | >697 | >250 | >250 | >250 | >250 | – | – | – | –
Crotamine | – | – | – | – | – | – | – | – | – | >105 | 13.3 | 6.7 | 1.7
DPVTCLKSGAICHPVFCPRRYKQIGTCGLPGTKCCKKP [hBd02, synthetic human β-defensin, GenBank AF071216, reference compound] | – | – | – | – | – | – | – | – | – | >124 | 15.6 | >124 | 2
QDLCHNLGGRCFRNRCSWSLRNHGGQDCPWGSVCCKP [DefbTs, synthetic β-defensin deduced from T. strigatus gene, GenBank KX664429] | – | – | – | – | – | – | – | – | – | >122 | >122 | >122 | 15.3
QEECLQQGGFCRLIRCPFGYDSLEQQDCRKGQRCCIRKPRK [DefbBj01, synthetic β-defensin deduced from B. jararaca gene, GenBank KC117163] | – | – | – | – | – | – | – | – | – | >105 | >105 | >105 | 3.2
QEWCRGLGGFCSFYQCRPGHDLGPQDCWPERRCCRWGK [DefbLm01, synthetic β-defensin deduced from L. muta gene, GenBank KC117171] | – | – | – | – | – | – | – | – | – | >113 | >113 | >113 | 28.4
QGQCHQQRGRCFLHQCPLSHYFLGRLDCGPGRRCCRRRK [DefbLm02, synthetic β-defensin deduced from L. muta gene, GenBank KC117172] | – | – | – | – | – | – | – | – | – | 6.8 | 3.4 | 3.4 | 0.9
QPECCQEGGICHSKQCPLGYSSLGRLDCQLGQRCCIRIFGK [DefbBn02, synthetic β-defensin deduced from B. neuwiedi gene, GenBank KC117169] | – | – | – | – | – | – | – | – | – | >113 | >113 | >113 | >113
QPECLRQGGMCRPRLCPYVSLGQLDCQNGHVCCRKKPRK [DefbBd03, synthetic β-defensin deduced from B. diporus gene, GenBank KC117160] | – | – | – | – | – | – | – | – | – | >115 | >115 | >115 | 0.9
QPQCRWLDGFCHSSPCPSGTTSIGQQDCLWYESCCIPRYEK [Crotasin, synthetic β-defensin deduced from C. durissus gene, GenBank AF250212] | – | – | – | – | – | – | – | – | – | >108 | >108 | >108 | >108
QRICLGGRGFCHSTPCPRSTIDYGKKDCWGSLRCCEPKRPGK [DefbPm, synthetic β-defensin deduced from P. mertensis gene, GenBank KX664436] | – | – | – | – | – | – | – | – | – | >109 | >109 | >109 | 6.8
QRRCHQKGGMCLPGPCPPGYDSLGQQDCRRGQKCCIKRFGK [DefbBju01, synthetic β-defensin deduced from B. jararacussu gene, GenBank KC117165] | – | – | – | – | – | – | – | – | – | >111 | >111 | >111 | >111
QRRCRQRRGICRPRPCPPENFSLGRLDCQMGQMCCRRRFGK [DefbBm03, synthetic β-defensin deduced from B. mattogrossensis gene, GenBank KC117168] | – | – | – | – | – | – | – | – | – | >103 | 1.6 | 3.2 | 1.6
QRRCRQRRGICRPRPCPPENFSLGRLDCQMGRMCCRRRFGK [DefbBm02, synthetic β-defensin deduced from B. mattogrossensis gene, GenBank KC117167] | – | – | – | – | – | – | – | – | – | 12.8 | 3.2 | 1.6 | 0.8
